Values of other authors, collected in US7825150B2, “Compositions and methods for treating immunological and inflammatory diseases and disorders” (Lexicon Pharmaceuticals, Inc., priority 2007, dated 2010).
Like-named read-outs stand apart in the source and are kept apart here.

Assays:
[1] = tested on: adjuvant-induced arthritis (AA) model; settings: therapeutic setting, established disease state; majority of published studies
S1P lyase = target: T1, S1P lyase (Mus musculus, UniProt Q8R0X7); settings: administered to mice; Schwab et al. 2005
T1 construct: host or cells: mice, in vivo (endogenous enzyme)
T1 sequence (Q8R0X7 1-568): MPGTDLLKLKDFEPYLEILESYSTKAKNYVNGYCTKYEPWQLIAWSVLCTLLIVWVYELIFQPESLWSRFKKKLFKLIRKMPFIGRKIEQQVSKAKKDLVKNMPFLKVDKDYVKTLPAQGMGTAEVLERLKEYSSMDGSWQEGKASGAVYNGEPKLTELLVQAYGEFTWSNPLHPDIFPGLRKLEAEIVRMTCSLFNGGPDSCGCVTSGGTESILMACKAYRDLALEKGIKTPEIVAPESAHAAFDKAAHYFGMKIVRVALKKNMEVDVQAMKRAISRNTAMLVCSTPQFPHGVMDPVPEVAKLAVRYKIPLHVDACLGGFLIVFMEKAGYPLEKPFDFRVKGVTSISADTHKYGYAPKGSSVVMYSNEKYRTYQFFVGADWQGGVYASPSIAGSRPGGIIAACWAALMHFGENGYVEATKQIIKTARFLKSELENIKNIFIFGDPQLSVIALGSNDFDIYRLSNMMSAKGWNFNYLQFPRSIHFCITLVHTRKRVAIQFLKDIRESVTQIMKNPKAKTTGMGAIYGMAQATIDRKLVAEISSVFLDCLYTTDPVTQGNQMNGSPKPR

lymphocytes [2] = settings: administration to rats
lymphocytes [3] = settings: administration to mice
[4] = humans

S1P lyase activity (S1P lyase) | Structure (SMILES) | effectiveness of MTX treatment alone in this model [1] | accumulation of mature T cells in the thymus (lymphocytes [2]) | lymphopenia (lymphocytes [2]) | accumulation of mature T cells in the thymus (lymphocytes [3]) | lymphopenia (lymphocytes [3]) | immunological effects [4]
 | CN(Cc1cnc2nc(N)nc(N)c2n1)c1ccc(C(=O)N[C@@H](CCC(=O)O)C(=O)O)cc1 [MTX, methotrexate] | not effective |  |  |  |  | 
inhibits S1P lyase activity | CC(=O)c1nc(C(O)C(O)C(O)CO)c[nH]1 (stereo not shown) [THI, 2-acetyl-4-tetrahydroxybutylimidazole] |  | causes the accumulation of mature T cells in the thymus | induces lymphopenia | causes the accumulation of mature T cells in the thymus | induces lymphopenia | no immunological effects
